Measured values: US20210000814A1, “RIMEGEPANT FOR CGRP RELATED DISORDERS” (Biohaven Pharmaceutical Holding Company Ltd., priority 2018, published 2021)

Key:
[1] = system: subjects with Acute Migraines; assay: BHV3000-301 Phase 3 trial, acute treatment of migraine: efficacy; type: in vivo, human; conditions: Study 301; P<0.0001
Method: Clinical Trial—BHV3000-301: Phase 3: Double-Blind, Randomized, Placebo-Controlled, Safety and Efficacy Trial of BHV-3000 (Rimegepant) for the Acute Treatment of Migraine (ClinicalTrials.gov Identifier: NCT03235479). A phase 3 clinical study was conducted with 1490 participants, as follows. […] Pain freedom of rimegepant (75 mg tablet) compared with placebo in the acute treatment of migraine will be measured using the number of evaluable subjects that report no pain at 2 hours post-dose. [Time Frame: Two hours post dose] • Pain will be measured on a 4 point Likert scale (0=none, 1=mild, 2=moderate, 3=severe) • 2. Freedom from the most bothersome symptom (MBS) of rimegepant (75 mg tablet) compared with placebo will be measured using the number of evaluable subjects that report the absence of their MBS at 2 hours post-dose. [Time Frame: Two hours post dose] • The MBS (nausea, phonophobia or photophobia) will measured using a binary scale (0=absent, 1=present). […] [Time Frame: 2 hours -24 hours post-dose] • Sustained Pain Freedom as measured by a 4 point numeric rating scale (None, Mild, Moderate, Severe) • 2. […] [Time Frame: 2 hours post-dose] • Pain Relief as measured by a 4 point numeric rating scale (None, Mild, Moderate, Severe) • 5. […] Sustained Pain Relief as measured by a 4 point numeric rating scale (None, Mild, Moderate, Severe) • 9. […]

[2] = BHV3000-302 Phase 3 trial: safety and tolerability; type: in vivo, human; conditions: Study 302
Method: (§1) In a double-blind, randomized, placebo-controlled, multicenter study (Study 302, NCT03237845) adults ≥8 years of age with at least a 1-year history of ICHD 3-beta migraine were eligible to participate. Following a 3- to 28-day screening period, subjects were randomized to receive rimegepant 75 mg or matching placebo and instructed to treat a single migraine attack with 1 dose of the blinded study drug (rimegepant or placebo) when headache pain reached moderate or severe intensity. The coprimary endpoints were pain freedom at 2 hours postdose and freedom from the most bothersome symptom (MBS) at 2 hours postdose. Safety assessments included adverse events (AEs), ECGs, vital signs, physical measurements, and routine laboratory tests, including assessment of liver function. Unless stated otherwise, values presented are mean±SD.

[3] = human, in vivo
Method: Clinical Trial—BHV3000-303: Phase 3: Double-Blind, Randomized, Placebo-Controlled, Safety and Efficacy Trial of BHV-3000 (Rimegepant) Orally Discintegrating Tablet (ODT) for the Acute Treatment of Migraine (ClinicalTrials.gov Identifier: NCT03461757) • A phase 3 clinical study was conducted with 1812 participants, as follows.
Study Design • Study Type: Interventional (Clinical Trial) • Actual Enrollment: 1812 participants • Allocation: Randomized • Intervention Model: Parallel Assignment • Masking: Triple (Participant, Care Provider, Investigator) • Primary Purpose: Treatment • Official Title: BHV3000-303: Phase 3, Double-Blind, Randomized, Placebo Controlled, Safety and Efficacy Trial of BHV-3000 (Rimegepant) Orally Disintegrating Tablet (ODT) for the Acute Treatment of Migraine • Actual Study Start Date: Feb. 27, 2018 • Actual Primary Completion Date: Oct. 8, 2018 • Actual Study Completion Date: Oct. 15, 2018

[4] = BHV3000-301 Phase 3 trial: safety and tolerability; type: in vivo, human; conditions: Study 301
Method: as §1, with “Methods • In” for “In”, “301, NCT03235479)” for “302, NCT03237845)”, “≥[…]” for “≥8”

LFTs >3xULN [3]: one patient
SMILES: N[C@@H]1c2cccnc2[C@H](OC(=O)N2CCC(n3c(=O)[nH]c4ncccc43)CC2)CC[C@H]1c1cccc(F)c1F [Rimegepant, [(55,65,9R)-5-amino-6-(2,3-difluorophenyl)-6,7,8,9-tetrahydro-5H-cyclohepta[b]pyridin-9-yl]4-(2-oxo-3H-imidazo[4,5-b]pyridin-1-yl)piperidine-1-carboxylate]
patients achieving normal function at 2 hours (functional disability) versus placebo [1]: greater proportion | bilirubin elevations greater than 2 times ULN [2]: no bilirubin elevations | transaminase level greater than 3 times ULN [2]: No subject | safety and tolerability profile ([2]; 75 mg oral tablet): favorable tolerability and safety | Serious AEs (SAEs) ([2]; back pain): 1 subject | safety and tolerability [3]: consistent with the profile previously observed in Study 301 | highest incidence of any single adverse event (AE) ([3]; 48 h): ≤ 1.6% | SAE related to the study drug [4]: No SAE | bilirubin elevations >2 times ULN [4]: No bilirubin elevations | transaminase level >5 times ULN [4]: no subject | safety and tolerability profile ([4]; 75 mg oral tablet): favorable tolerability and safety | AE dizziness ([4]; 4/546 subjects): 0.7% | AE nausea ([4]; 5/546 subjects): 0.9% | Serum ALT or AST levels greater than ULN ([4]; 11/546 subjects): 2.0% | Serious AEs (SAEs) ([4]; n=2, both not dosed before onset): 0.4%
